Reference: patent US8476043B2, “Inhibitors for the soluble epoxide hydrolase” (The Regents of the University of California, priority 2004, dated 2013)

Each compound was assayed against T1, human sEH (Homo sapiens, UniProt P34913) (assay: sEH inhibition, fluorescent assay with cyano(6-methoxy-naphthalen-2-yl)methyl trans-[(3-phenyloxiran-2-yl)methyl]carbonate as substrate). Conditions: not given.
T1 construct: made in house
T1 sequence (P34913 1-555): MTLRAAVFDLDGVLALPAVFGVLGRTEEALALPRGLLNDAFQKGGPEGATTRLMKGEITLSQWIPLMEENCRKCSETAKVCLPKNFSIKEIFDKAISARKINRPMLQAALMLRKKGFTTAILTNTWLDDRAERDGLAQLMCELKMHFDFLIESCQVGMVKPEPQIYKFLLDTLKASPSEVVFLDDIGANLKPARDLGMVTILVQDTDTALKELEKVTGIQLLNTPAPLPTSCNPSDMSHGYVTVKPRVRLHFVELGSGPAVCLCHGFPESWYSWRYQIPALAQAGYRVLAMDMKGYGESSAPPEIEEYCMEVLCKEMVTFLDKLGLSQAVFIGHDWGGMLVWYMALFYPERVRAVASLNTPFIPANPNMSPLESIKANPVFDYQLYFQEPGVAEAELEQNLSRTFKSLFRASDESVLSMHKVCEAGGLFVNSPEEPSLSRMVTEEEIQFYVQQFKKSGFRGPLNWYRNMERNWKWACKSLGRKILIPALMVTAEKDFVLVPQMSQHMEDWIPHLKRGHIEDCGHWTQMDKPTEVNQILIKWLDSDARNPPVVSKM
Assay type: biochemical
Procedure: Recombinant mouse sEH and human sEH were produced in a baculovirus expression system and purified by affinity chromatography. […] Protein concentration was quantified by using the Pierce BCA assay using Fraction V bovine serum albumin as the calibrating standard.
Enzyme activity was measured by monitoring the appearance of 6-methoxy-2-naphthaldehyde. Assays were performed in triplicate. […] IC50 values were determined by regression of at least five datum points, with a minimum of two datum points in the linear region of the curve on either side of the IC50 values. The curve was generated from at least three separate runs, each in triplicate.

SMILES | IC50 [nM]
O=C(NC1CCC(OC2CCCCC2)CC1)NC12CC3CC(CC(C3)C1)C2 (stereo not drawn) [Compound 1097] | 10 ± 10

Same assay, conditions: 792 vs. 687; 1001, 1002 and 798 vs. the sulfonylamides

fold decrease in inhibition potency on human sEH [fold] | SMILES
1.5 | CCNC(=O)CCCCCCCCCCCNC(=O)NC12CC3CC(CC(C3)C1)C2 [Compound 792, 1-(1-Adamantyl)-3-(11-ethylaminocarbonylundecyl)urea]

Same assay, conditions: Table 5; fluorescent-based assay, 0.96 nM human sEH, pH 7.0, [S] = 5 μM; read-out: Human sEH IC50

IC50 [nM] | SMILES
7.6 | CC(C)=CCCC(C)CCOC(=O)CCCNC(=O)NC12CC3CC(CC(C3)C1)C2 (stereo not drawn) [Compound 798, 4-(3-Adamantan-1-yl-ureido) butyric Acid 3,7-Dimethyl-oct-6-enyl Ester]
4.3 | CCNC(=O)CCCCCCCCCCCNC(=O)NC12CC3CC(CC(C3)C1)C2 [Compound 792, 1-(1-Adamantyl)-3-(11-ethylaminocarbonylundecyl)urea]

Same assay, conditions: Table 18b; fluorescent assay with cyano(6-methoxy-naphthalen-2-yl)methyl trans-[(3-phenyloxiran-2-yl)methyl]carbonate as substrate; mean ± SD; read-out: IC50

SMILES | IC50 [nM]
CC(C)(Oc1ccc(NC(=O)NC23CC4CC(CC(C4)C2)C3)cc1)C(=O)OCc1ccccc1 [Compound 1441] | 10 ± 10
O=C(NCCOCc1ccc2ccccc2c1)NCCOCc1ccc2ccccc2c1 [Compound 1117] | 1120 ± 10
CCOCCOCCOCCCCCNC(=O)NC1C2CC3CC(C2)CC1C3 (stereo not drawn) [Compound 1128] | 10 ± 10
O=C(NC1CCC(OCc2ccccc2F)CC1)NC12CC3CC(CC(C3)C1)C2 (stereo not drawn) [Compound 1150] | 10 ± 10
O=C(CCCCCCOCCCCCCc1ccccc1)NC12CC3CC(CC(C3)C1)C2 [Compound 1125] | 10 ± 10
CCOC(=O)C(C)Oc1ccc(NC(=O)NC23CC4CC(CC(C4)C2)C3)cc1 (stereo not drawn) [Compound 1186] | 10 ± 10
O=C(O)CCCc1ccc(NC(=O)NC23CC4CC(CC(C4)C2)C3)cc1 [Compound 1224] | 10 ± 10
O=C(Nc1ccc(OCCN2CCOCC2)c(Cl)c1)NC12CC3CC(CC(C3)C1)C2 [Compound 1447] | 10 ± 10
O=C(NC12CC3CC(CC(C3)C1)C2)N[C@H]1CC[C@H](OC(=O)c2ccc([N+](=O)[O-])cc2)CC1 (relative stereo) [Compound 1076, trans-4-Nitro-benzoic acid 4-(3-tricyclo[3.3.1.13,7]decan-1-yl-ureido)-cyclohexyl ester] | 10 ± 10
O=C(Nc1ccccc1)NC1CCC(OCc2c(F)cccc2F)CC1 (stereo not drawn) [Compound 1148] | 10 ± 10
O=C(Nc1cccc(C(=O)Nc2ccc(N3CCOCC3)cc2)c1)NC12CC3CC(CC(C3)C1)C2 [Compound 1440] | 70 ± 10
CC(=O)c1cccc(NC(=O)NC23CC4CC(CC(C4)C2)C3)c1 [Compound 1192] | 10 ± 10
CCOC(=O)C(F)(F)Oc1ccc(NC(=O)NC23CC4CC(CC(C4)C2)C3)cc1 [Compound 1443] | 10 ± 10
CC(=O)Oc1cccc(NC(=O)NC23CC4CC(CC(C4)C2)C3)c1 [Compound 1193] | 10 ± 10
O=C(NC1CCCCC1)Oc1cccc(-c2ccccc2)c1 [Compound 1229] | 920 ± 10
O=C(CC12CC3CC(CC(C3)C1)C2)Nc1ccc(O)cc1 [Compound 1454] | 30 ± 10
Cc1c(COC(=O)NC2CCCCC2)cccc1-c1ccccc1 [Compound 1230] | 660 ± 10
CC(C)N(C(=O)Oc1cccc(-c2ccccc2)c1)C(C)C [Compound 1463] | 11890 ± 10
O=C(O)Cc1ccc(NC(=O)NC23CC4CC(CC(C4)C2)C3)cc1 [Compound 1178] | 10 ± 10
O=C(Nc1ccc(O)cc1)NC12CC3CC(CC(C3)C1)C2 [Compound 1183] | 20 ± 10
O=C(Nc1ccc(OCCN2CCOCC2)cc1)NC12CC3CC(CC(C3)C1)C2 [Compound 1197] | 10 ± 10

Results, then the compound that gave them:

IC50 [nM] | SMILES
7190 ± 10 | CCN(CC)C(=O)OCc1cccc(-c2ccccc2)c1C [Compound 1464]
1230 ± 10 | Cc1c(COC(=O)N(C(C)C)C(C)C)cccc1-c1ccccc1 [Compound 1465]
260 ± 10 | CCCCCNC(=O)NCCOCc1ccc2ccccc2c1 [Compound 1116]
170 ± 10 | O=C(O)CCCCCNC(=O)NC12CC3CC(CC(C3)C1)C2 [Compound 1213]
140 ± 10 | O=C(O)COc1ccc(NC(=O)NC23CC4CC(CC(C4)C2)C3)cc1 [Compound 1185]
60 ± 10 | O=C(Nc1cccc(C(=O)NCCCN2CCOCC2)c1)NC12CC3CC(CC(C3)C1)C2 [Compound 1166]
60 ± 10 | O=C(Nc1cccc(C(=O)NCCN2CCOCC2)c1)NC12CC3CC(CC(C3)C1)C2 [Compound 1165]
50 ± 10 | O=C(CC12CC3CC(CC(C3)C1)C2)NC1CCC(O)CC1 (stereo not drawn) [Compound 1063-1]
40 ± 10 | CCOC(=O)c1cccc(NC(=O)CC23CC4CC(CC(C4)C2)C3)c1 [Compound 1452]
40 ± 10 | O=C(NC1CCCC(C(=O)NCCOCCO)C1)NC12CC3CC(CC(C3)C1)C2 (stereo not drawn) [Compound 1022]
30 ± 10 | O=C(CC12CC3CC(CC(C3)C1)C2)Nc1cccc(C(=O)O)c1 [Compound 1453]
30 ± 10 | O=C(CCCCCCOCCc1ccccc1)NC12CC3CC(CC(C3)C1)C2 [Compound 1070]
10 ± 10 | CCOCCOCC(OC(=O)CCCNC(=O)NC12CC3CC(CC(C3)C1)C2)c1ccccc1 (stereo not drawn) [Compound 1439]
10 ± 10 | O=C(Nc1cccc(C(=O)NCCN2CCCC2)c1)NC12CC3CC(CC(C3)C1)C2 [Compound 1198]
10 ± 10 | O=C(Nc1cccc(C(=O)c2ccccc2)c1)NC12CC3CC(CC(C3)C1)C2 [Compound 1218]
10 ± 10 | O=C(O)CCc1cccc(NC(=O)NC23CC4CC(CC(C4)C2)C3)c1 [Compound 1226]
10 ± 10 | O=C(Cc1ccc(NC(=O)NC23CC4CC(CC(C4)C2)C3)cc1)NC(C(=O)NCC(C(=O)O)c1c[nH]c2ccccc12)c1ccccc1 (stereo not drawn) [Compound 1425]
10 ± 10 | O=C(Nc1ccc(Cl)cc1)NC1CCC(Oc2ccc(F)cc2)CC1 (stereo not drawn) [Compound 1514]

IC50 [nM] | SMILES
10 ± 10 | O=C(NCCCCCCCCO)NC12CC3CC(CC(C3)C1)C2 [Compound 1449]
10 ± 10 | O=C(NC1CCC(C(=O)O)CC1)NC12CC3CC(CC(C3)C1)C2 (stereo not drawn) [Compound 1173]
10 ± 10 | O=C(Nc1ccc(C(=O)O)cc1)NC12CC3CC(CC(C3)C1)C2 [Compound 1177]
10 ± 10 | O=C(O)CCc1ccc(NC(=O)NC23CC4CC(CC(C4)C2)C3)cc1 [Compound 1223]
10 ± 10 | O=C(NC1CCC(O)CC1)C12CC3CC(CC(C3)C1)C2 (stereo not drawn) [Compound 1142]
10 ± 10 | COCOc1cc(F)c(COC2CCC(NC(=O)NC34CC5CC(CC(C5)C3)C4)CC2)c(F)c1 (stereo not drawn) [Compound 1105]
10 ± 10 | O=C(CCCCCCOCCCCc1ccccc1)NC12CC3CC(CC(C3)C1)C2 [Compound 1028]
10 ± 10 | O=C(CC12CC3CC(CC(C3)C1)C2)NCCCCCOCCOCCOCc1ccccc1 [Compound 1063-2]
10 ± 10 | CCOCCOCCOc1ccc(C(OC(=O)CCCNC(=O)NC23CC4CC(CC(C4)C2)C3)c2ccccc2)cc1 (stereo not drawn) [Compound 1438]
10 ± 10 | O=C(Nc1ccc(C(=O)c2ccccc2)cc1)NC12CC3CC(CC(C3)C1)C2 [Compound 1219]
10 ± 10 | O=C(CCCCCCOCCCCCc1ccccc1)NC12CC3CC(CC(C3)C1)C2 [Compound 1062]
10 ± 10 | O=C(NCCCCCOCCN1CCOCC1)NC12CC3CC(CC(C3)C1)C2 [Compound 1196]
10 ± 10 | O=C(Nc1ccc(O)c(Cl)c1)NC12CC3CC(CC(C3)C1)C2 [Compound 1446]
10 ± 10 | CC(Oc1ccc(NC(=O)NC23CC4CC(CC(C4)C2)C3)cc1)C(=O)O (stereo not drawn) [Compound 1187]
10 ± 10 | CCOCCOCCOCCOC(=O)CCCCCCCCCCCNC(=O)NC12CC3CC(CC(C3)C1)C2 [Compound 1067]
10 ± 10 | CCOCCOCCOCCCCCNC(=O)NC1C2CC3CC(C2)CC1C3 (stereo not drawn) [Compound 1172]
10 ± 10 | O=C(NCCCCCOCCCN1CCS(=O)(=O)CC1)NC12CC3CC(CC(C3)C1)C2 [Compound 1131]
